These are literature values, as cited in US11077096B2, “Modified release compositions comprising tacrolimus” (Veloxis Pharmaceuticals A/S, priority 2003, dated 2021).

Each structure is given as a SMILES string.

Assay in data set [1]: not given
The source holds these as a separate data set.

A word on the bioavailability: it is dose-corrected exposure relative to a reference, in per cent. Consider `C=CC[C@@H]1/C=C(\C)C[C@H](C)C[C@H](OC)[C@H]2O[C@@](O)(C(=O)C(=O)N3CCCC[C@H]3C(=O)OC(/C(C)=C/[C@@H]3CC[C@@H](O)[C@H](OC)C3)[C@H](C)[C@@H](O)CC1=O)[C@H](C)C[C@@H]2OC` (stereo partly drawn) [Tacrolimus], for which, where the note is “chloroform”, the Solubility in chloroform entry is “very soluble”. The Solubility in ethanol result (ethanol) is on record as “freely soluble”. Besides, the Solubility in methanol result (methanol) is given as “very soluble”. Besides, the Solubility in water entry (water) is recorded as “practically insoluble”. Moreover, in data set [1] (after oral administration), the bioavailability is at most 20%. Besides, the “mean time-to-peak concentration (tmax)” value in data set [1] (oral administration, healthy subjects or kidney or liver transplanted patients) was 1 to 2 h.
